Entries after “also recorded” stand apart in the source; their conditions may differ.
Assays:
U87MG tumors [1] = assay: Vessel morphology of U87 tumors in the cranial window by intravital microscopy; assay type: in vivo, mice; conditions: L-NPA 20 mg/kg daily i.p. vs saline, cranial window
Experimental: Recombination activating gene 1 (Rag-1^−/−) mice backcrossed to C57BL/6 background or severe combined immunodeficiency (SCID) mice, bred and maintained in an gnotobiotic animal facility, were used. To obtain source tumor tissue, U87 tumor cells in culture (1×10^6 cells) were injected subcutaneously into Rag-1^−/− or SCID mice matching the recipient mice. When the tumor reached about 8 mm in diameter, it was excised after euthanasia and a small piece (about 1 mm^3) of viable tumor tissue was implanted into a cranial window or subcutaneously into the calf area of the right hindlegs of the mice as previously described (Kashiwagi, S., et al. 2005 J. Clin. Invest. 115, 1816-1827; Kozin, S. V., et al. 2001 Cancer Research 61, 39-44). All animal procedures were carried oat following the Public Health Service Policy on Humane Care of Laboratory Animals and approved by the Institutional Animal Care and Use Committee of Massachusetts General Hospital. […]
(§1) Angiogenesis and vessel morphology were determined in U87 and GL261 tumors grown in the cranial windows by intravital microscopy using multiphoton laserscanning microscopy (MPLSM) or single photon fluorescence microscopy (SPFM) when tumors reached about 7 mm^2. […] Using MPLSM, five locations with 200-μm thick imaging stack were recorded for each tumor. […]
Vascular parameters such as functional vessel density (the total length of perfused microvessels per unit area) and vessel diameter were analyzed by tracing each vessel segment using NIH image 1.63 as described elsewhere (Kashiwagi, S., et al. 2005 J. Clin. Invest. 115, 1816-1827). Tissue distribution of NO was visualized using MPLSM and the NO-sensitive fluorescence probe 4,5-diaminofluorescein (DAF-2) (0.5 mg i.v. Daiichi Pure Chemicals Co. Ltd) as described previously (Kashiwagi, S., et al. 2005 J. Clin. Invest. 115, 1816-1827). NO converts DAF-2 to 4,5-diaminofluorescein triazolium (DAF-2T) increasing fluorescence by a factor of 200. The DAF-2 associated fluorescence images were captured 60 min after i.v. injection. […]

U87MG tumors [2] = assay: Microvascular permeability of U87 tumors by intravital microscopy with tetramethylrhodamine-BSA; assay type: in vivo, mice; conditions: L-NPA 20 mg/kg daily i.p. vs saline, cranial window
Experimental: To lower NO production from all NOS isoforms in the gliomas, mice received a pan-NOS inhibitor NG-Monomethyl-L-arginine monoacetate (L-NMMA) (Alexis Corp.) or non-active control compound D-NMMA (Alexis Corp.) at the rate of 7 mg/day by a constant release micro-osmotic pump (Model 1002, Alzet Osmotic Pumps, Durect Corp.) (Kashiwagi, S., et al. 2005 J. Clin. Invest. 115, 1816-1827). The micro-osmotic pumps were implanted in the back of the animals one day before the implantation of tumors. […]
The effective vascular permeability (P) was determined by SPFM as described previously (Fukumura, D., et al. 2001 Proc Natl Acad Sci USA 98, 2604-2609). In brief, the fluorescence intensity of the tumor tissue was intermittently measured for 20 min after the injection of tetramethylrhodamine-labeled bovine serum albumin (10 mg/ml, 0.1 ml per 25 g body weight). Permeability was calculated as P=(1−HT) V/S [1/(I0−Ib)*dI/dt+1/K], where I is the average fluorescence intensity of the whole image, I0 is the initial fluorescence intensity, and Ib is the background fluorescence intensity, HT is hematocrit, V and S are the total volume and surface area of vessels within the tissue volume covered by the surface image, respectively, and K is the time constant of BSA plasma clearance (Fukumura, D., et al. 2001 Proc Natl Acad Sci USA 98, 2604-2609).

GL261 tumors = assay: Vessel morphology and function of GL261 tumors in the cranial window; assay type: in vivo; conditions: L-NPA vs saline, SCID mice
Experimental: FIGS. 7A-E show NOS expression in GL261 tumors and the effect of an nNOS selective inhibitor on vessel morphology and function in GL261 tumors. (A) NOS expression in GL261 tumors grown in the cranial window in SCID mice. Five micron paraffin block sections were immunostained using antibodies to eNOS, nNOS, iNOS or non-specific mouse IgG. The bar indicates 100 μm. Different from U87MG tumors, GL261 tumor cells express all three isoforms of NOS, especially strong expression of eNOS. (B) MPLSM microangiographies of GL261 tumors treated with saline and L-NPA. The bar indicates 200 μm. (C-D) Quantification of 3-D vessel density (C) and diameter (D) using MPLSM image stack and an automated image analysis system. N=6 each. (E) Microvascular permeability in GL261 tumors treated with saline (N=6) and L-NPA (N=6) was measured by intravital microscopy using tetramethylrhodamine-BSA. […]
as §1
The effective vascular permeability (P) was determined by SPFM as described previously (Fukumura, D., et al. 2001 Proc Natl Acad Sci USA 98, 2604-2609). […]

10T1/2 cells = assay: cGMP production in cultured 10T1/2 cells; assay type: cell-based; conditions: 100 μM
Experimental: FIGS. 13A-C show the role of the NO-sGC-cGMP pathway in perivascular cell recruitment and migration. (A) In bar graph form, cGMP production in cultured 10T1/2 cells in response to NO donor or PDE5 inhibitor. (B) In bar graph form, the migration of 10T1/2 cells in a transwell assay. 10T1/2 cell migration was assessed using Falcon HTS FluoroBlok inserts with 1 μm pores. GFP-expressing 10T1/2 cells were inoculated in the inserts, and HUVECs were inoculated in the outer well. Percent area of transwell filter covered by migrated 10T1/2 cells was determined. Medium only indicates no HUVECs in the outer well. ODQ, T-1032, Sildenafil, or Sildenafil+L-NMMA were added to the medium. *P<0.05 vs. control (HUVEC). (C) Images for transmigrated GFP-10T1/2 cells at the back side of the Fluoroblock insert after 10 hours with control vs. T-1032 treatment.
cGMP levels were examined in 10T1/2 cells following treatments of an NO donor DETANONOate or an inhibitor for phosphodiesterase 5 (PDE5), an enzyme which degrades cGMP.

MCaIV tumors = assay: Intravital microscopy of MCaIV tumors under iNOS inhibition; assay type: in vivo, mice; conditions: 1400 W 10 mg/kg/day by osmotic pump vs saline, 7 days
Description: FIGS. 12A-E show the effect of iNOS inhibition in MCaIV tumors and blood vessel morphology and function in MCaIV tumors. (A) Fluorescence immunohistochemistry image of iNOS expression (green), F4/80 positive macrophages (red) and DAPI stained nuclei (blue) in MCaIV tumors grown in the mammary fat pad. The bar indicates 50 μm. (B-C) MPLSM images of MCaIV tumors grown in αSMA^P-GFP mice treated with saline control (B) or an iNOS inhibitor 1400 W (C). Functional blood vessels were contrast-enhanced by i.v. injection of tetramethylrhodamine-dextran (red). αSMA-positive perivascular cells were visualized by GFP fluorescence (green). The bars indicate 100 μm. (D-E) MCaIV tumors grown in αSMAP-GFP mice were treated with saline (control) or iNOS inhibitor (1400 W) for 7 days. (D) Perivascular cell coverage. (N=4, each). (E) Vascular permeability (N=7, each). Data are mean±SEM. *p<0.05 vs. control.
Breast cancer cells in MCaIV murine mammary tumor model express iNOS similar to many human tumors, in contrast to the U87MG glioma model, in which tumor cells predominantly express neuronal NOS (nNOS). MCaIV tumors grown orthotopically in the mammary fat pad express iNOS and to a much lesser extent eNOS as determined by real time RT-PCR. […] Inhibition of iNOS would eliminate the majority of non-vascular NO production. […]

## CCCN=C(N)NCCC[C@H](N)C(=O)O [L-NPA, NG propyl-L-arginine]
U87MG tumors [1]
  vessel density: increased
U87MG tumors [2]
  vascular permeability: decreased
GL261 tumors
  tumor vasculature (vessel morphology and function): did not improve; also recorded: did not alter

## NCCN(CCN)/[N+]([O-])=N/O [DETANONOate]
10T1/2 cells
  cGMP level: increased

## CC(=N)NCc1cccc(CN)c1 [1400 W, N-(3-(Aminomethyl)benzyl) acetamidine]
MCaIV tumors
  vascular permeability: significantly lower
MCaIV tumors; αSMAP-GFP mice
  perivascular cell coverage: significantly increased

— patent US20130195926A1, “MODULATION OF NITRIC OXIDE SIGNALING TO NORMALIZE TUMOR VASCULATURE” (The General Hospital Corporation, priority 2007, published 2013)
